System: HCT116 colorectal cancer cells
Experiment: Cisplatin sensitization assay (96 h MTS cell viability);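 note: compound concentration needed to lower the IC50 of Cisplatin alone by a set fold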
Assay type: cell-based
Conditions: Cisplatin sensitization value
Experimental: Compounds can be screened for their ability to sensitize HCT116 colorectal cancer cells to Cisplatin using a 96 h cell viability (MTS) assay. […] Compounds and Cisplatin are then both added simultaneously to the cell media in 2-fold serial dilutions from a top final concentration of 10 μM as a full matrix of concentrations in a final cell volume of 200 μl, and the cells are then incubated at 37° C. in 5% CO2. After 96 h, 40 μl of MTS reagent (Promega G358a) is added to each well and the cells are incubated for 1 h at 37° C. in 5% CO2.
Compounds with a Cisplatin sensitization value of <0.02 μM are marked with “+++.” Compounds with a Cisplatin sensitization value >0.02 μM but <0.2 μM are marked with “++.” Compounds with a Cisplatin sensitization value >0.2 μM but <5 μM are marked with “+.”

Row | SMILES | Cisplatin Sensitization Assay
1 | Nc1nn2cc(F)cnc2c1C(=O)Nc1cncc(F)c1N1CCC(C(=O)N2CC[C@H](N3CCCC3)C2)CC1 [I-G-58, (S)—N-(4-(4-([1,3′-bipyrrolidine]-1′-carbonyl)piperidin-1-yl)-5-fluoropyridin-3-yl)-2-amino-6-fluoropyrazolo[1,5-a]pyrimidine-3-carboxamide] | +++ (Compounds with a Cisplatin sensitization value of <0.02 μM are marked with “+++.”)
2 | CN1CCC(N(C)S(=O)(=O)C2CCN(c3c(F)cncc3NC(=O)c3c(N)nn4cc(F)cnc34)CC2)CC1 [I-N-148, 2-amino-6-fluoro-N-(5-fluoro-4-(4-(N-methyl-N-(1-methylpiperidin-4-yl)sulfamoyl)piperidin-1-yl)pyridin-3-yl)pyrazolo[1,5-a]pyrimidine-3-carboxamide] | +++ (Compounds with a Cisplatin sensitization value of <0.02 μM are marked with “+++.”)
3 | Cn1ccc2c(NC(=O)c3c(N)nn4cc(F)cnc34)cncc21 [I-C-74, 2-amino-6-fluoro-N-(1-methyl-1H-pyrrolo[2,3-c]pyridin-4-yl)pyrazolo[1,5-a]pyrimidine-3-carboxamide] | + (Compounds with a Cisplatin sensitization value >0.2 μM but <5 μM are marked with “+.”)
4 | Nc1nn2cc(F)cnc2c1C(=O)Nc1cnccc1-c1ccnnc1 [I-C-26, 2-amino-6-fluoro-N-(4-(pyridazin-4-yl)pyridin-3-yl)pyrazolo[1,5-a]pyrimidine-3-carboxamide] | ++ (Compounds with a Cisplatin sensitization value >0.02 μM but <0.2 μM are marked with “++.”)
5 | COCCN(C)C(=O)C1CCN(c2c(F)cncc2NC(=O)c2c(N)nn3cc(F)cnc23)CC1 [I-G-40, 2-amino-6-fluoro-N-(5-fluoro-4-(4-((2-methoxyethyl)(methyl)carbamoyl)piperidin-1-yl)pyridin-3-yl)pyrazolo[1,5-a]pyrimidine-3-carboxamide] | +++ (Compounds with a Cisplatin sensitization value of <0.02 μM are marked with “+++.”)
6 | Nc1nn2cc(Cl)cnc2c1C(=O)Nc1cnccc1N1CCNC(C(F)(F)F)C1 (stereo not shown) [I-N-70, 2-amino-6-chloro-N-(4-(3-(trifluoromethyl)piperazin-1-yl)pyridin-3-yl)pyrazolo[1,5-a]pyrimidine-3-carboxamide] | ++ (Compounds with a Cisplatin sensitization value >0.02 μM but <0.2 μM are marked with “++.”)
7 | Cc1cncc(NC(=O)c2c(N)nn3cc(Cl)cnc23)c1N1CCN(C)CC1 [I-N-57, 2-amino-6-chloro-N-(5-methyl-4-(4-methylpiperazin-1-yl)pyridin-3-yl)pyrazolo[1,5-a]pyrimidine-3-carboxamide] | +++ (Compounds with a Cisplatin sensitization value of <0.02 μM are marked with “+++.”)
8 | Cc1nnc(N2CCN(c3ccncc3NC(=O)c3c(N)nn4cc(F)cnc34)CC2)o1 [I-N-256, 2-amino-6-fluoro-N-(4-(4-(5-methyl-1,3,4-oxadiazol-2-yl)piperazin-1-yl)pyridin-3-yl)pyrazolo[1,5-a]pyrimidine-3-carboxamide] | ++ (Compounds with a Cisplatin sensitization value >0.02 μM but <0.2 μM are marked with “++.”)
9 | CC(C)N1CCN(c2ccncc2NC(=O)c2c(N)nn3cc(F)cnc23)CC1 [I-N-4, 2-amino-6-fluoro-N-(4-(4-isopropylpiperazin-1-yl)pyridin-3-yl)pyrazolo[1,5-a]pyrimidine-3-carboxamide] | +++ (Compounds with a Cisplatin sensitization value of <0.02 μM are marked with “+++.”)
10 | Cc1ccncc1NC(=O)c1c(N)nn2cc(F)cnc12 [I-C-4, 2-amino-6-fluoro-N-(4-methylpyridin-3-yl)pyrazolo[1,5-a]pyrimidine-3-carboxamide] | ++ (Compounds with a Cisplatin sensitization value >0.02 μM but <0.2 μM are marked with “++.”)
11 | Nc1nn2cc(F)cnc2c1C(=O)Nc1cncc(F)c1N1CCC(C(=O)N2CC3CCC(C2)N3)CC1 [I-G-44, N-(4-(4-(3,8-diazabicyclo[3.2.1]octane-3-carbonyl)piperidin-1-yl)-5-fluoropyridin-3-yl)-2-amino-6-fluoropyrazolo[1,5-a]pyrimidine-3-carboxamide] | +++ (Compounds with a Cisplatin sensitization value of <0.02 μM are marked with “+++.”)
12 | Nc1nn2cc(F)cnc2c1C(=O)Nc1cncc(F)c1N1CCN2C(=O)CC[C@@H]2C1 [I-N-182, (R)-2-amino-6-fluoro-N-(5-fluoro-4-(6-oxohexahydropyrrolo[1,2-a]pyrazin-2(1H)-yl)pyridin-3-yl)pyrazolo[1,5-a]pyrimidine-3-carboxamide] | ++ (Compounds with a Cisplatin sensitization value >0.02 μM but <0.2 μM are marked with “++.”)
13 | Nc1nn2cc(F)cnc2c1C(=O)Nc1cncc(F)c1OC1CCN(C2COC2)CC1 [I-O-91, 2-amino-6-fluoro-N-(5-fluoro-4-((1-(oxetan-3-yl)piperidin-4-yl)oxy)pyridin-3-yl)pyrazolo[1,5-a]pyrimidine-3-carboxamide] | ++ (Compounds with a Cisplatin sensitization value >0.02 μM but <0.2 μM are marked with “++.”)
14 | Nc1nn2cc(F)cnc2c1C(=O)Nc1cncc(F)c1N1CCC(C(=O)O)CC1 [I-N-92, 1-(3-(2-amino-6-fluoropyrazolo[1,5-a]pyrimidine-3-carboxamido)-5-fluoropyridin-4-yl)piperidine-4-carboxylic acid] | + (Compounds with a Cisplatin sensitization value >0.2 μM but <5 μM are marked with “+.”)
15 | CN1CCC(Oc2ccncc2NC(=O)c2c(N)nn3cc(F)cnc23)CC1 [I-O-12, 2-amino-6-fluoro-N-(4-((1-methylpiperidin-4-yl)oxy)pyridin-3-yl)pyrazolo[1,5-a]pyrimidine-3-carboxamide] | +++ (Compounds with a Cisplatin sensitization value of <0.02 μM are marked with “+++.”)
16 | C[N+]1([O-])CCN(C(=O)C2CCN(c3c(F)cncc3NC(=O)c3c(N)nn4cc(F)cnc34)CC2)CC1 [I-G-95, 4-(1-(3-(2-amino-6-fluoropyrazolo[1,5-a]pyrimidine-3-carboxamido)-5-fluoropyridin-4-yl)piperidine-4-carbonyl)-1-methylpiperazine 1-oxide] | +++ (Compounds with a Cisplatin sensitization value of <0.02 μM are marked with “+++.”)
17 | Nc1nn2cc(F)cnc2c1C(=O)Nc1cnccc1N1CCCC2(COC2)C1 [I-N-253, N-(4-(2-oxa-6-azaspiro[3.5]nonan-6-yl)pyridin-3-yl)-2-amino-6-fluoropyrazolo[1,5-a]pyrimidine-3-carboxamide] | +++ (Compounds with a Cisplatin sensitization value of <0.02 μM are marked with “+++.”)
18 | N#CCc1cnc2c(C(=O)Nc3cnccc3O[C@H]3CCOC3)c(N)nn2c1 [I-O-42, (S)-2-amino-6-(cyanomethyl)-N-(4-((tetrahydrofuran-3-yl)oxy)pyridin-3-yl)pyrazolo[1,5-a]pyrimidine-3-carboxamide] | +++ (Compounds with a Cisplatin sensitization value of <0.02 μM are marked with “+++.”)
19 | Nc1nn2cc(Cl)cnc2c1C(=O)Nc1cnccc1N1CCC(N2CCn3ccnc3C2)CC1 [I-N-102, 2-amino-6-chloro-N-(4-(4-(5,6-dihydroimidazo[1,2-a]pyrazin-7(8H)-yl)piperidin-1-yl)pyridin-3-yl)pyrazolo[1,5-a]pyrimidine-3-carboxamide] | ++ (Compounds with a Cisplatin sensitization value >0.02 μM but <0.2 μM are marked with “++.”)
20 | Nc1nn2cc(F)cnc2c1C(=O)Nc1cnccc1N1CCN(C(=O)C2COC2)CC1 [I-N-249] | +++ (Compounds with a Cisplatin sensitization value of <0.02 μM are marked with “+++.”)
21 | Cn1ccc(-c2ccncc2NC(=O)c2c(N)nn3cc(F)cnc23)n1 [I-C-68, 2-amino-6-fluoro-N-(4-(1-methyl-1H-pyrazol-3-yl)pyridin-3-yl)pyrazolo[1,5-a]pyrimidine-3-carboxamide] | + (Compounds with a Cisplatin sensitization value >0.2 μM but <5 μM are marked with “+.”)
22 | CN1CCN(S(=O)(=O)C2CCN(c3c(F)cncc3NC(=O)c3c(N)nn4cc(F)cnc34)CC2)CC1 [I-N-166, 2-amino-6-fluoro-N-(5-fluoro-4-(4-((4-methylpiperazin-1-yl)sulfonyl)piperidin-1-yl)pyridin-3-yl)pyrazolo[1,5-a]pyrimidine-3-carboxamide] | +++ (Compounds with a Cisplatin sensitization value of <0.02 μM are marked with “+++.”)
23 | CN1CCN(c2ccc(-c3ccncc3NC(=O)c3c(N)nn4cc(F)cnc34)cn2)CC1 [I-C-21, 2-amino-6-fluoro-N-(6-(4-methylpiperazin-1-yl)-[3,4′-bipyridin]-3′-yl)pyrazolo[1,5-a]pyrimidine-3-carboxamide] | +++ (Compounds with a Cisplatin sensitization value of <0.02 μM are marked with “+++.”)
24 | Nc1nn2cc(Cl)cnc2c1C(=O)Nc1cnccc1O[C@@H]1CCOC1 [I-O-54, (R)-2-amino-6-chloro-N-(4-((tetrahydrofuran-3-yl)oxy)pyridin-3-yl)pyrazolo[1,5-a]pyrimidine-3-carboxamide] | +++ (Compounds with a Cisplatin sensitization value of <0.02 μM are marked with “+++.”)
25 | Cc1nccnc1-c1ccncc1NC(=O)c1c(N)nn2cc(F)cnc12 [I-C-62, 2-amino-6-fluoro-N-(4-(3-methylpyrazin-2-yl)pyridin-3-yl)pyrazolo[1,5-a]pyrimidine-3-carboxamide] | ++ (Compounds with a Cisplatin sensitization value >0.02 μM but <0.2 μM are marked with “++.”)

Source: patent US11117900B2 (Vertex Pharmaceuticals Incorporated, priority 2012, dated 2021)
